Laboratory results as given in patent publication EP4613273A1, “TREATMENT OF BONE LOSS” (priority 2024, dated 2025).
Structures can show the parent of a compound that is named as a salt.

Tested on: CTX-1
Assay: Plasma CTX-1 (bone resorption marker) in healthy beagle dogs
Assay type: in vivo
Procedure: Compound Ib besylate salt (referred to as MIV-701 besylate salt) was administered once daily for 14 days to 3 healthy beagle dogs at three different doses: 1 mg/kg, 10 mg/kg and 100 mg/kg.
The doses were consecutively administered for 14 days with a >5-day washout period between two dose levels.
Each treatment period can be resumed as follows: • J0 (T+24h): first Compound Ib besylate salt administration, withdrawal of blood samples for pharmacokinetic and plasma CTX-1 assessment (pre-dose and 0.5h, 1h, 2h, 4h, 8h and 24h after drug administration), pre-dose blood samples for hematology and clinical biochemistry (baseline values for safety assessment). • J1 to J12: pre-dose blood samples • J13: last Compound Ib besylate salt administration, withdrawal of plasma samples for pharmacokinetic and plasma CTX-1 assessment (pre-dose and 0.5h, 1h, 2h, 4h, 8h and 24h after drug administration), pre-dose sampling for hematology and clinical biochemistry (baseline values for safety assessment). • J15-J≥19: washout period.

## CC(C)C[C@H](NC(=O)c1ccc(-c2csc(N3CCN(C)CC3)n2)cc1)C(=O)N1C[C@H](F)[C@H]2OCC(O)(O)[C@H]21 [MIV-701 besylate salt, N-[(S)-1-((3aS,6S,6aS)-6-Fluoro-S-oxo-hexahydro-furo[3,2-b]pyrrole-4-carbony)-3-methyl-butyl]-4-[2-(4-methyl-piperazin-1-yl)-thiazol-4-yl]-benzamide benzenesulphonate]
10 mg/kg once a day, D1 to end of 14 days
  inhibition of pre-dose plasma CTX-1 vs baseline: 40%
D0, three doses tested
  time of CTX-1 inhibition peak after administration: 8 h
Once a day oral, D1 to end of 14 days
  pre-dose plasma CTX-1 during repeated administration: dose-dependent inhibition
Single dose 10mg/kg and 100 mg/kg
  CTX-1 plasma concentration 24 hours after administration: did not go back to pre-dose concentration
Single oral administration (D0) at 1 mg, 10 mg and 100 mg
  effect on plasma CTX-1: dose-dependent effect
